Reference: PubChem BioAssay AID1918998 (Molecular Pharmacology Branch, DTP, NCI, 2023)

Test system: 521955-158-R2-J5-PDC complex spheroid growth
Experiment: Anticancer human tumor 521955-158-R2-J5-PDC patient-derived pancreatic carcinoma cell line growth inhibition [AhR]
Conditions: for IC50: curve of first compound; for viability, T/C: stronger effect = lower value
From the text: Multicellular complex tumor spheroid response to aryl hydrocarbon receptor antagonists in combination with a variety of drugs and investigational agents in selected tumor cell lines
The current study was undertaken to assess response to aryl hydrocarbon receptor antagonists in combination with standard-of-care drugs and investigational agents in solid tumor complex spheroid models. Complex spheroids include a stromal component modeled by human endothelial cells (HUVEC) and fibroblasts modeled by human mesenchymal stem cells (MSCs). The concentration ranges selected for each drug and investigational agent were based upon clinically achievable concentrations if the clinical Cmax of the agent was known.
Compounds. The drugs and investigational agents: BAY 2416964 (NSC825713), GNF351 (NSC835774), CH-223191 (NSC835775), CPI-455 (NSC825282), aza-TdCyd (NSC777586), decitabine (NSC127716), belinostat (NSC758774), entinostat (NSC756642), pevonedistat (NSC761192), tazemetostat (NSC777109), talazoparib (NSC765396), olaparib (NSC753686), selinexor (NSC780203), nedisertib (M3814, NSC802822), bortezomib (NSC756655), venetoclax (NSC766270), doxorubicin (NSC123127), elimusertib (BAY189344, NSC800525), ceralasertib (AZD6738, NSC777638), TAK-243 (NSC785004), alisertib (NSC759677), etoposide (NSC141540), topotecan (NSC609699), eribulin (NSC707389), gemcitabine (NSC613327), carboplatin (NSC241240), cisplatin (NSC119875), and SN-38 (NSC673596) were obtained from the National Cancer Institute (NCI) Developmental Therapeutics Program Chemical Repository (32). The FDA-approved anticancer drug set is available from the Developmental Therapeutics Program at https://dtp.cancer.gov/organization/dscb/obtaining/available plates.htm. […] The stock solutions were prepared in dimethyl sulfoxide (DMSO, Sigma-Aldrich, St. Louis, MO, cat. D2650), except for the platinum compounds which were prepared in saline (Quality Biological, Gaithersburg, MD, cat. 114-055-101), at 800-fold the tested concentration and stored at -70 degrees C prior to their use. All drugs and investigational agents were tested over a range starting from a high concentration at or near the clinical Cmax and decreasing in half-log increments. If the clinical Cmax for an agent had not been determined, the highest concentration tested was 10 microM (Table 1).
Cell Culture. All cells were maintained in an incubator at 37 degrees C and 5% CO2 with 95% humidity. The PDC lines were cultured according to standard operating procedures established by the NCI PDMR (https://pdmr.cancer.gov). Briefly, all PDCs were thawed and cultured in Matrigel-coated flasks prepared with a working solution of 1X Ham's F-12 nutrient mix, without supplementation (Invitrogen, Waltham, MA, cat. 11765054), 100 U/mL penicillin-streptomycin (Invitrogen, cat. 15140122), and 2.5% Matrigel (Corning Inc., Corning, NY, cat. 354248) for the first three passages. All PDCs were cultured in complete DMEM/F-12 media containing advanced DMEM/F-12 (Invitrogen, cat. 12634028), 4.9% defined fetal bovine serum, heat inactivated (HyClone Laboratories Inc., Logan, UT, cat. SH30070.03HI), 389 ng/mL hydrocortisone (Sigma-Aldrich, cat. H4001), 9.7 ng/mL human EGF recombinant protein (Invitrogen, cat. PHG0313), 23.4 microg/mL adenine (Sigma-Aldrich, cat. A2786), 97.3 U/mL penicillin-streptomycin (Invitrogen, cat. 15140122), 1.9 mM L-glutamine (Invitrogen, cat. 25030081), and 9.7 microM Y-27632 dihydrochloride (Tocris Bioscience, Bristol, United Kingdom, cat. 1254). The PDCs were cultured in complete DMEM/F12 media without 10 microM Y-27632 dihydrochloride for at least two passages prior to the screen. The established cell lines NCI-H1341 and […] were cultured in DMEM/F-12, HEPES (Invitrogen, cat. 11330032), 5% defined fetal bovine serum (HyClone Laboratories Inc., cat. SH30070.03), ITS premix universal culture supplement [insulin (5 microg/mL), transferrin (5 microg/mL), and selenious acid (5 ng/mL)] […]

[1] = second compound 0.1 µM, first compound 0.0316 µM
[2] = second compound 0.1 µM, first compound 0.1 µM
[3] = second compound 0.1 µM, first compound 0.316 µM
[4] = second compound 0.1 µM, first compound 1 µM
[5] = second compound 0.1 µM, first compound 3.16 µM
[6] = second compound 0.1 µM, first compound 10 µM
[7] = second compound 0.316 µM, first compound 0.0316 µM
[8] = second compound 0.316 µM, first compound 0.1 µM
[9] = second compound 0.316 µM, first compound 0.316 µM
[10] = second compound 0.316 µM, first compound 1 µM
[11] = second compound 0.316 µM, first compound 3.16 µM
[12] = second compound 0.316 µM, first compound 10 µM
[13] = second compound 1 µM, first compound 0.0316 µM
[14] = second compound 1 µM, first compound 0.1 µM
[15] = second compound 1 µM, first compound 0.316 µM
[16] = second compound 1 µM, first compound 1 µM
[17] = second compound 1 µM, first compound 3.16 µM
[18] = second compound 1 µM, first compound 10 µM
[19] = second compound 3.16 µM, first compound 0.0316 µM
[20] = second compound 3.16 µM, first compound 0.1 µM
[21] = second compound 3.16 µM, first compound 0.316 µM
[22] = second compound 3.16 µM, first compound 1 µM
[23] = second compound 3.16 µM, first compound 3.16 µM
[24] = second compound 3.16 µM, first compound 10 µM
[25] = second compound 10 µM, first compound 0.0316 µM
[26] = second compound 10 µM, first compound 0.1 µM
[27] = second compound 10 µM, first compound 0.316 µM
[28] = second compound 10 µM, first compound 1 µM
[29] = second compound 10 µM, first compound 3.16 µM
[30] = second compound 10 µM, first compound 10 µM
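Wherever viability, T/C is given: spheroids mix tumor cells with HUVEC endothelium and human MSC stroma; luminescence taken as viability surrogate after a week of drug exposure.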

| IC50 (second compound 0.1 µM) | IC50 (second compound 0.316 µM) | IC50 (second compound 1 µM) | IC50 (second compound 3.16 µM) | IC50 (second compound 10 µM) | Compound | viability, T/C [1] | viability, T/C [2] | viability, T/C [3] | viability, T/C [4] | viability, T/C [5] | viability, T/C [6] | viability, T/C [7] | viability, T/C [8] | viability, T/C [9] | viability, T/C [10] | viability, T/C [11] | viability, T/C [12] | viability, T/C [13] | viability, T/C [14] | viability, T/C [15] | also measured |
| --- | --- | --- | --- | --- | --- | --- | --- | --- | --- | --- | --- | --- | --- | --- | --- | --- | --- | --- | --- | --- | --- |
| < 0.0316 µM | 0.0501 µM | 0.0533 µM | < 0.0316 µM | 0.0387 µM | COc1cccc2c1C(=O)c1c(O)c3c(c(O)c1C2=O)CC(O)(C(=O)CO)CC3OC1CC(N)C(O)C(C)O1 (stereo not given) + CC(CO)NC(=O)c1cc(-c2ccc(Cl)cc2)nn(-c2cnn(C)c2)c1=O | 49.1% | 45.1% | 28% | 2.42% | 7.75% | 13.9% | 54.6% | 42.6% | 24.5% | 2.21% | 5.07% | 13.4% | 56.4% | 41.7% | 24.1% | viability, T/C [16]: 9.29%; viability, T/C [17]: 2.9%; viability, T/C [18]: 14.6%; viability, T/C [19]: 50.7%; viability, T/C [20]: 41.8%; viability, T/C [21]: 25.8%; viability, T/C [22]: 8.77%; viability, T/C [23]: 7.63%; viability, T/C [24]: 14%; viability, T/C [25]: 52.9%; viability, T/C [26]: 37%; viability, T/C [27]: 18.7%; viability, T/C [28]: 6.31%; viability, T/C [29]: 6.29%; viability, T/C [30]: 13.8% |
| 5.03 µM | 5.29 µM | 5.68 µM | 6.93 µM | 7.2 µM | Nc1ccccc1NC(=O)c1ccc(CNC(=O)OCc2cccnc2)cc1 + Cc1ccccc1N=Nc1ccc(NC(=O)c2ccnn2C)c(C)c1 | 121% | 129% | 130% | 104% | 64.6% | 29.6% | 95.2% | 137% | 147% | 109% | 69.8% | 26.4% | 135% | 154% | 155% | viability, T/C [16]: 116%; viability, T/C [17]: 67.5%; viability, T/C [18]: 34.4%; viability, T/C [19]: 141%; viability, T/C [20]: 164%; viability, T/C [21]: 154%; viability, T/C [22]: 131%; viability, T/C [23]: 71.4%; viability, T/C [24]: 40%; viability, T/C [25]: 165%; viability, T/C [26]: 168%; viability, T/C [27]: 152%; viability, T/C [28]: 129%; viability, T/C [29]: 78.1%; viability, T/C [30]: 38.7% |
| 2.05 µM | 2.36 µM | 2.54 µM | 2.52 µM | 2.55 µM | CC1COCCN1c1cc(C2(S(C)(=N)=O)CC2)nc(-c2ccnc3[nH]ccc23)n1 (stereo not given) + Cc1ccccc1N=Nc1ccc(NC(=O)c2ccnn2C)c(C)c1 | 93.3% | 84.7% | 86.6% | 86.2% | 28.1% | 15.9% | 104% | 112% | 100% | 101% | 32.8% | 14% | 117% | 110% | 136% | viability, T/C [16]: 109%; viability, T/C [17]: 36.2%; viability, T/C [18]: 14.8%; viability, T/C [19]: 123%; viability, T/C [20]: 135%; viability, T/C [21]: 131%; viability, T/C [22]: 120%; viability, T/C [23]: 32.8%; viability, T/C [24]: 15.5%; viability, T/C [25]: 130%; viability, T/C [26]: 149%; viability, T/C [27]: 139%; viability, T/C [28]: 124%; viability, T/C [29]: 32.9%; viability, T/C [30]: 16.1% |
